The target in one test is T1, Adenosine receptor A3 (Homo sapiens, UniProt P0DMS8).
T1 sequence (P0DMS8 whole entry): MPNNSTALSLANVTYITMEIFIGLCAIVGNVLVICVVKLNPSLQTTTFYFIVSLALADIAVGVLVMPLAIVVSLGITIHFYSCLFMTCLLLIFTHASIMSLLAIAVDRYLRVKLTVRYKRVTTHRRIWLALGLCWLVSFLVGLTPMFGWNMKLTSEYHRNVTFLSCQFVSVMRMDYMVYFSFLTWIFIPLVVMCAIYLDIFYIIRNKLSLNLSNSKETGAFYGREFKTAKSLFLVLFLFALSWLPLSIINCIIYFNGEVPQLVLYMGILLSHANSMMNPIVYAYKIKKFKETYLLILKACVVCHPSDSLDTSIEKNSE

Another test has as its target T2, Progesterone receptor (Homo sapiens, UniProt P06401).
T2 sequence (P06401 whole entry): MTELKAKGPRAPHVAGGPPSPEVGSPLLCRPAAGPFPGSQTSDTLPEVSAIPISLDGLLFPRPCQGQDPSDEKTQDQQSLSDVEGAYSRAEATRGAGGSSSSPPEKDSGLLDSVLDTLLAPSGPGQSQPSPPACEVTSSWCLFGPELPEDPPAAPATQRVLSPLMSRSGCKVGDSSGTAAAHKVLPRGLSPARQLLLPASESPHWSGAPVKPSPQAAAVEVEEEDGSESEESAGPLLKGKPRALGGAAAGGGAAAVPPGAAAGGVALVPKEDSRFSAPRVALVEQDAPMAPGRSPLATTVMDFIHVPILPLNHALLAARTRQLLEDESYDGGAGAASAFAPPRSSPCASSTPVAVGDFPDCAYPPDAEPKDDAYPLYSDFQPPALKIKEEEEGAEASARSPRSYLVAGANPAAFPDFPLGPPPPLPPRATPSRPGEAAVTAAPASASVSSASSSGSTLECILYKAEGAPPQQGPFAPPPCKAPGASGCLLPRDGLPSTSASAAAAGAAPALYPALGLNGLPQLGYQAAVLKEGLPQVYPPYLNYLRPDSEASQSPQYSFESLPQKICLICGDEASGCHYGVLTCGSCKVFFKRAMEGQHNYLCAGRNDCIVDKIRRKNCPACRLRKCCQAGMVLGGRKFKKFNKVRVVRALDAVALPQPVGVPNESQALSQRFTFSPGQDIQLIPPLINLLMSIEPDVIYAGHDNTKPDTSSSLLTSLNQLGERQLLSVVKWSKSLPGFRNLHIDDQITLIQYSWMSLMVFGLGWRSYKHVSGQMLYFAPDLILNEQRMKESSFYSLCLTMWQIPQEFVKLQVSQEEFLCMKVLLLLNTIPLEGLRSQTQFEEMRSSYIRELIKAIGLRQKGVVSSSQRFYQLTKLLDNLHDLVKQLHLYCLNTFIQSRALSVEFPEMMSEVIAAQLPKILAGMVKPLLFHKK

In a further test the target is T3, Thromboxane A2 receptor (Homo sapiens, UniProt P21731).
T3 sequence (P21731 whole entry): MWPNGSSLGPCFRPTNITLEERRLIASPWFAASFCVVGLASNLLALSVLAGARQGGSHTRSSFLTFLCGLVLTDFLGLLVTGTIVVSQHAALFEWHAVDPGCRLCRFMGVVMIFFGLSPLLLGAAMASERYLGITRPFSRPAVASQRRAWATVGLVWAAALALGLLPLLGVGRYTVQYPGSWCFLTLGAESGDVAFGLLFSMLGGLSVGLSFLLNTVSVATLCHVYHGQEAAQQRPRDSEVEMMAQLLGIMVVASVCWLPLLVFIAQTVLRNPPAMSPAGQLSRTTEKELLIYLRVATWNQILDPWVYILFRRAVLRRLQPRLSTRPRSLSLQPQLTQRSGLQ

The target in test [1] is T4, 5-hydroxytryptamine receptor 2C (Homo sapiens, UniProt P28335).
T4 sequence (P28335 whole entry): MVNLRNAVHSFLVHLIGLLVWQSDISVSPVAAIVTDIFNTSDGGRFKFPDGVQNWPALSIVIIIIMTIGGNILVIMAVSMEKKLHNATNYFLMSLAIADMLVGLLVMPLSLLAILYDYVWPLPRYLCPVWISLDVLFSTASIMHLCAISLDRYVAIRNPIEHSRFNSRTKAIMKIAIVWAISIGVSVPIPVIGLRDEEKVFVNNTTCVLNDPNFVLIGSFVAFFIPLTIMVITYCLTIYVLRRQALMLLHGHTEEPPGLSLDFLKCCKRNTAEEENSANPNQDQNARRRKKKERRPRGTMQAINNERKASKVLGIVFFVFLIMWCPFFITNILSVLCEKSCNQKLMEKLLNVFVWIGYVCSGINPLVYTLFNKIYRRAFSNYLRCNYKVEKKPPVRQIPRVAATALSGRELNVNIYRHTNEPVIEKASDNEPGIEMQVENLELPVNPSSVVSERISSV

The target in test [2] is Beta-1 adrenergic receptor (Homo sapiens, UniProt P08588). Type of test: functional.
In test [3] the target is Gamma-aminobutyric acid receptor subunit alpha-1 (Rattus norvegicus, UniProt P62813). The format is functional.
The next test has as its target Adenosine receptor A2a (Homo sapiens, UniProt P29274).
In test [4] the target is Kappa-type opioid receptor (Homo sapiens, UniProt P41145).
A further test has as its target Histamine H3 receptor (Homo sapiens, UniProt Q9Y5N1).
Test [5] has as its target T5, Cholecystokinin receptor type A (Homo sapiens, UniProt P32238).
T5 sequence (P32238 whole entry): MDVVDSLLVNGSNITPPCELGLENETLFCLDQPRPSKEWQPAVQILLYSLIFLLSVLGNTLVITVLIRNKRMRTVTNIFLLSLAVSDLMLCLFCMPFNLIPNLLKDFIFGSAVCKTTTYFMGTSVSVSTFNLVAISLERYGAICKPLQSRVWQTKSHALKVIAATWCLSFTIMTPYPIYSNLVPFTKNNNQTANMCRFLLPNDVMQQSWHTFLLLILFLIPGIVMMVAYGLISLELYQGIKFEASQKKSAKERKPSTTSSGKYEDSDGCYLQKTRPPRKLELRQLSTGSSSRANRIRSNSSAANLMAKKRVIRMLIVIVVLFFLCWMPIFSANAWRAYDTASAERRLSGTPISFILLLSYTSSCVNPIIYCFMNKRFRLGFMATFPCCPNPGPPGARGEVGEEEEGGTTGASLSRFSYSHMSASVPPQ

For test [6], the target named is Growth hormone secretagogue receptor type 1 (Homo sapiens, UniProt Q92847).
The target of test [7] is Glutamate receptor ionotropic, NMDA 1 (Rattus norvegicus, UniProt P35439).

Molecules are shown by their SMILES. Where only a bound is given, the exact number is not on record here.
Note: assay procedure not described here.

Chain of Growth hormone secretagogue receptor type 1 (Q92847 whole entry): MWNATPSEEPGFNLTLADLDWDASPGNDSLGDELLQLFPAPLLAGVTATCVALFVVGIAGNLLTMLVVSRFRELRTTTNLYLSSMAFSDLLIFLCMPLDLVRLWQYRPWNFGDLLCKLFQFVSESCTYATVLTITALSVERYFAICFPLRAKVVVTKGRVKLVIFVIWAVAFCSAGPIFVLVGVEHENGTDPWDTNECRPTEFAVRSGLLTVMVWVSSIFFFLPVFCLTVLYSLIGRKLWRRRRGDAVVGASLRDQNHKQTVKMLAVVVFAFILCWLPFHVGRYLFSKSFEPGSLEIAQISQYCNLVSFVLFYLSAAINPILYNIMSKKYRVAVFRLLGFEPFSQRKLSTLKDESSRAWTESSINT
Chain of Kappa-type opioid receptor (P41145 whole entry): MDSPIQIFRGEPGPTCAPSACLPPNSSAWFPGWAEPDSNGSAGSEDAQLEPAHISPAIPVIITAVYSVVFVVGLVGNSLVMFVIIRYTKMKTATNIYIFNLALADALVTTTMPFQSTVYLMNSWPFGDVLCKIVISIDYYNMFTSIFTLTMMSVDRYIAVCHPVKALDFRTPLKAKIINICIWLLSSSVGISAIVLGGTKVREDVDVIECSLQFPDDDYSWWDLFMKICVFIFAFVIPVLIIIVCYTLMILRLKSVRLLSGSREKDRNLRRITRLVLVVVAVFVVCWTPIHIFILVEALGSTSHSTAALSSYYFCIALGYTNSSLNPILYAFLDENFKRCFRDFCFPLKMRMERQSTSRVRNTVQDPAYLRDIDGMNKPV
Chain of Histamine H3 receptor (Q9Y5N1 whole entry): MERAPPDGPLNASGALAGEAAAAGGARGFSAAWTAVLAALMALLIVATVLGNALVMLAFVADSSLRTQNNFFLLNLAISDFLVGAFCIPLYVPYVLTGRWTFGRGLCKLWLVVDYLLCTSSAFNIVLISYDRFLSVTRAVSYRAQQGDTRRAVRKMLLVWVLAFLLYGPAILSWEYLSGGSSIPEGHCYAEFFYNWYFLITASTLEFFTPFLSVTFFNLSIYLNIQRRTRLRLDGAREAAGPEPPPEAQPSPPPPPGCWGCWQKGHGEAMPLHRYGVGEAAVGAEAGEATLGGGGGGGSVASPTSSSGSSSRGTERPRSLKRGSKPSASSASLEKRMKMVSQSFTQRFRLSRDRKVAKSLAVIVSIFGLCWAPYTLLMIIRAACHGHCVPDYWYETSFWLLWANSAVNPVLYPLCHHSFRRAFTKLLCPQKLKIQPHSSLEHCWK
Chain of Gamma-aminobutyric acid receptor subunit alpha-1 (P62813 whole entry): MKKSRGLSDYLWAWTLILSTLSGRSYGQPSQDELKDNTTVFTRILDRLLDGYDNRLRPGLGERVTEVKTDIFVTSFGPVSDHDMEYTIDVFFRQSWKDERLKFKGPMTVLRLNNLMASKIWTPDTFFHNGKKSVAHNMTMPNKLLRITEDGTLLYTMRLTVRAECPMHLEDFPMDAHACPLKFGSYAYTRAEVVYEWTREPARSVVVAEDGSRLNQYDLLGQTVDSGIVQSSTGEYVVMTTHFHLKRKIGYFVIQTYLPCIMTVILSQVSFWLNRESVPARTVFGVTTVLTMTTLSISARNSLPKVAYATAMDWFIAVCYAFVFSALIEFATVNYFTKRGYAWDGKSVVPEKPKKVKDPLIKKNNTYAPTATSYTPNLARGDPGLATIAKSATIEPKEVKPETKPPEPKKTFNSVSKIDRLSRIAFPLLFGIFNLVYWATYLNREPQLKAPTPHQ
Chain of Adenosine receptor A2a (P29274 whole entry): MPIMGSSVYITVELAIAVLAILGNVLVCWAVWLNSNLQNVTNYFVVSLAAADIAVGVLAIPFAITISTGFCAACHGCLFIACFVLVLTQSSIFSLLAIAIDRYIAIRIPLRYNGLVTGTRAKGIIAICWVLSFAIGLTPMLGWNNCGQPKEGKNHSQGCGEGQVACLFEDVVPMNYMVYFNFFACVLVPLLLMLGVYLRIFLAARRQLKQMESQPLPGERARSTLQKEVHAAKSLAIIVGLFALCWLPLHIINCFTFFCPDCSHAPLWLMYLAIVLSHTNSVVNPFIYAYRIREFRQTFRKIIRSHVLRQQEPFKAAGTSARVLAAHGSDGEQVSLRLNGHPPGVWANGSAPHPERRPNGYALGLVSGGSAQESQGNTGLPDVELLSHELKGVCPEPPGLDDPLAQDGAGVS
Chain of Beta-1 adrenergic receptor (P08588 whole entry): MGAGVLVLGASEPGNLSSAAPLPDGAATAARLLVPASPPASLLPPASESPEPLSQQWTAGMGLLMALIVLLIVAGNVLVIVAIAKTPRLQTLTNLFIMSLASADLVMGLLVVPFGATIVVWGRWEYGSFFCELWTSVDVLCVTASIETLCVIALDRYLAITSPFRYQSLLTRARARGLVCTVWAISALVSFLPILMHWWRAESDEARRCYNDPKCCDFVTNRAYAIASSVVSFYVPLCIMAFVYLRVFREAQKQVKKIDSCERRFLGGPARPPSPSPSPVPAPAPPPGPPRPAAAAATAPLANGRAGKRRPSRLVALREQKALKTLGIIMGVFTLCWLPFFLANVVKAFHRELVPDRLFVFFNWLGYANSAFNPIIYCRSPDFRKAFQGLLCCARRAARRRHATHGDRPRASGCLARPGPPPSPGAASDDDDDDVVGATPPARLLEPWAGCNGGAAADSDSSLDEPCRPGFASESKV

With `COc1nccnc1NS(=O)(=O)c1ccc(N)cc1`, the AC50 (as a rule, the concentration giving half of the maximal activity seen) at Adenosine receptor A3 is above 30 µM.
On Progesterone receptor, `O=C(Nc1cccc2c(=O)cc(-c3nnn[nH]3)oc12)c1ccc(OCCCCc2ccccc2)cc1` showed an AC50 of 6.23 µM.
Turning to `CN(C)CCCN1C(=O)c2cc([N+](=O)[O-])ccc2Oc2ccccc21`, the AC50 on Adenosine receptor A3 and on Progesterone receptor was above 30 µM each time.
With `CC1(C)S[C@@H]2[C@H](NC(=O)[C@H](N)c3ccc(O)cc3)C(=O)N2[C@H]1C(=O)O` [AMOXICILLIN], the AC50 (on Thromboxane A2 receptor; in test [1]; in [2]; in test [3]; at Adenosine receptor A2a; in test [4]) was above 30 µM in each case. For the same compound, the concentration at half-maximal activity (AC50) (on Histamine H3 receptor; in [5]; in test [6]; in [7]) was above 30 µM throughout.
In the case of `CNCC[C@@H](Oc1ccccc1C)c1ccccc1` [ATOMOXETINE], the AC50 was above 30 µM at Thromboxane A2 receptor; above 30 µM in test [2]; above 30 µM at Adenosine receptor A2a; 1.8 µM in test [4]; 30 µM on Histamine H3 receptor; above 30 µM in test [5]. This compound also had a half-maximal activity concentration (AC50) in test [6] above 30 µM.
Turning to `Clc1cccc(Cl)c1N=C1NCCN1` [CLONIDINE], the AC50 on Thromboxane A2 receptor was above 30 µM; in test [1], above 30 µM; in test [2] it was above 10 µM; in test [3], above 10 µM; on Adenosine receptor A2a it was above 30 µM; at Histamine H3 receptor, above 10 µM. The AC50 in [5] was above 30 µM; in test [6], above 30 µM; in test [7], above 10 µM.
As for `CN1C[C@H](C(=O)N[C@]2(C)O[C@@]3(O)[C@@H]4CCCN4C(=O)[C@H](Cc4ccccc4)N3C2=O)C[C@@H]2c3cccc4[nH]cc(c34)C[C@H]21` [DIHYDROERGOTAMINE], the AC50 on Thromboxane A2 receptor was 13.7 µM; in test [1], 0.5 µM; in test [2] it was above 10 µM; in [3], above 10 µM; on Adenosine receptor A2a it was above 30 µM; in test [4], above 10 µM. The concentration at half-maximal activity (AC50) on Histamine H3 receptor was above 10 µM; in test [5], above 30 µM; in [6], 4.39 µM; in test [7], above 10 µM.
As for `CNCC[C@H](Oc1cccc2ccccc12)c1cccs1` [DULOXETINE], the AC50 on Thromboxane A2 receptor is above 30 µM; in test [1], 13 µM; in [2] it was 15 µM; in test [3], above 10 µM; on Adenosine receptor A2a it was above 30 µM; in [5] it was above 30 µM. Moreover, the AC50 was 14.7 µM in test [6] and above 10 µM in [7].
`CC(C)(N)C(=O)N[C@H](Cc1c[nH]c2ccccc12)C(=O)N[C@H](Cc1c[nH]c2ccccc12)NC=O` [MACIMORELIN] registered a concentration at half-maximal activity (AC50) at Progesterone receptor above 30 µM.
In the case of `C#C[C@]1(O)CC[C@H]2[C@@H]3CCC4=C(CCC(=O)C4)[C@H]3CC[C@@]21C` [NORETHYNODREL], the AC50 at Adenosine receptor A3 came out at 10.1 µM.
In the case of `CNCCC=C1c2ccccc2CCc2ccccc21` [NORTRIPTYLINE], the half-maximal activity concentration (AC50) (at Thromboxane A2 receptor; in test [3]; on Adenosine receptor A2a; at Histamine H3 receptor; in [5]; in [6]) was above 30 µM each time.
`COc1ccc(Cc2nccc3cc(OC)c(OC)cc23)cc1OC` [PAPAVERINE]: the half-maximal activity concentration (AC50) (at Thromboxane A2 receptor; in test [1]; in test [2]; in [3]; on Adenosine receptor A2a; in test [4]) was above 30 µM each time. Also, the AC50 (at Histamine H3 receptor; in [5]; in test [6]; in test [7]) was above 30 µM throughout.
In the case of `CC(C)(C)C(=O)NCCCC(=O)O` [PIVAGABINE], the AC50 on Adenosine receptor A3 was above 30 µM.
Regarding `NC(=O)c1ncn([C@@H]2O[C@H](CO)[C@@H](O)[C@H]2O)n1` [RIBAVIRIN], the concentration at half-maximal activity (AC50) on Thromboxane A2 receptor is above 10 µM; in test [1] it was above 30 µM; in test [2], above 10 µM; in [3], above 10 µM; on Adenosine receptor A2a it was above 10 µM; in test [4], above 10 µM. The AC50 (on Histamine H3 receptor; in [5]; in test [6]; in test [7]) was above 10 µM each time.
As to `O=C(Nc1c(Cl)cncc1Cl)c1ccc(OC(F)F)c(OCC2CC2)c1` [ROFLUMILAST], the AC50 (on Thromboxane A2 receptor; in [1]; in [2]; in test [3]; at Adenosine receptor A2a; in test [4]) was above 30 µM each time. Further, the AC50 (on Histamine H3 receptor; in [5]; in test [6]; in test [7]) was above 30 µM throughout.
Consider `CCCCNc1ccc(C(=O)OCCN(C)C)cc1` [TETRACAINE], for which the half-maximal activity concentration (AC50) is above 30 µM on Thromboxane A2 receptor; above 10 µM in test [1]; above 10 µM in test [2]; above 10 µM in test [3]; above 30 µM at Adenosine receptor A2a; above 10 µM in [4]. Moreover, the concentration at half-maximal activity (AC50) at Histamine H3 receptor is above 10 µM; in test [5] it was above 30 µM; at Progesterone receptor it was above 30 µM; in [6] it was above 30 µM; in test [7] it was above 10 µM.
As to `CC1(C)O[C@@H]2[C@@H](CO[C@@]3(COS(N)(=O)=O)OC(C)(C)O[C@@H]23)O1` [TOPIRAMATE], the AC50 on Thromboxane A2 receptor is above 30 µM; in test [1], above 30 µM; in test [2], above 10 µM; in test [3], above 10 µM; on Adenosine receptor A2a it was above 30 µM; in test [4] it was above 10 µM. Besides, the AC50 on Histamine H3 receptor is above 10 µM; in test [5] it was above 30 µM; at Progesterone receptor it was above 30 µM; in [6] it was above 30 µM; in test [7], above 10 µM.

The values are drawn from ChEMBL document CHEMBL5291721, “A preclinical secondary pharmacology resource illuminates target-adverse drug reaction associations of marketed drugs” (Nat Commun, 2023).
